pEC50, pIC50: −log10 of the molar value. Some results are limits rather than exact numbers.

In test [1] the test system is Jurkat cells. Briefly: Cell viability by MTT test, Jurkat. The test is classed as cell-based, human. How it is done: (§1) Samples were then probed by immunoblot for (A) caspase-3 activation or (B) cleavage of PARP. (C) DNA fragmentation analysis. […] The DNA was isolated by phenol/chloroform extraction, separated on a 2% agarose gel and visualized by ethidium bromide staining. Cell viability assay.
One of the hallmarks of apoptosis is the fragmentation of chromosomal DNA into discrete, nucleosomal sized bands. […] We then examined the effects of the compounds on cell viability. Jurkat cells were incubated at different concentrations of compounds for 22 hr and then assayed by MTT test.
(§2) Normal cell lines include peripheral blood lymphocytes (PBL) isolated from donated human blood, non-transformed mammary fibroblasts (MCF-10A), human mammary epithelial cells (HMEC), human umbilical vein endothelial cells (HUVEC), and human prostate epithelial cells (PREC). Transformed cell lines include cell lines from leukemia, breast, lung, ovarian, and epidermal cancers (Table 1).
Background: Tetrazolium dyes change colour on reduction, which living cells bring about.

The test system of test [2] is peripheral blood lymphocytes (PBL). The test is described as follows: Cell viability, PBL. The test is classed as cell-based, human. The conditions noted are these: normal cell.
Excerpt: as §1, §2

Test [3] relates to MCF 10A cells. Briefly: Cell viability, MCF 10A. The test is classed as cell-based, human.
Excerpt: as §2

Test [4] deals with human mammary epithelial cells (HMEC). Briefly: Cell viability, HMEC. It is filed as cell-based.
The subject of test [5] is human umbilical vein endothelial cells (HUVEC). Briefly: Cell viability, HUVEC. The test is classed as cell-based. The conditions noted are these: normal cell.
Excerpt: as §2

For test [6], the system named is Molt-4. The test is described as follows: Cell viability, Molt-4. It is filed as cell-based, human. The conditions noted are these: Molt-4, leukemia.
Excerpt: as §1, §2

Test [7] has as its system CCRF-CEM. The test is described as follows: Cell viability, CCRF-CEM. The test is classed as cell-based, human. The note with it: leukemia.
Excerpt: as §1, §2

The subject of test [8] is BT-549. Briefly: Cell viability, BT-549. The test is classed as cell-based, human. The conditions noted are these: BT-549, breast.
Excerpt: as §2

The test system of test [9] is MDA-MB-453. Briefly: Cell viability, MDA-MB-453. The test is classed as cell-based. The note with it: MDA-MB-453, breast.
Excerpt: as §2

The test system of test [10] is MDA-MB-468. Briefly: Cell viability, MDA-MB-468. It is filed as cell-based. The conditions noted are these: MDA-MB-468, breast.
Excerpt: as §2

For test [11], the system named is SK-OV-3. The test is described as follows: Cell viability, SK-OV-3. It is filed as cell-based.
Excerpt: as §2

Test [12] concerns A431. The test is described as follows: Cell viability, A431. The conditions noted are these: A431, epidermal. The test is classed as cell-based.
Excerpt: as §2

The subject of test [13] is Jurkat cells transfected with Apaf-1 siRNA. Briefly: Viability of Jurkat cells transfected with Apaf-1 siRNA (MTT test). The test is classed as cell-based, human. The note with it: 20 nM Apaf-1 siRNA 48 hr, then 24 hr incubation. How it is done: (§3) (A) Jurkat cells were transfected with 20 nM Apaf-1 siRNA for 48 hr and half the cells were lysed and probed with antibodies to Apaf-1, caspase-9, and caspase-3. The other half of the cells was incubated with varying concentrations of (B), compound 2 or (C), Fas ligand for 24 hr and assayed for viability by MTT test. (D) SK-OV-3 cells were transiently transfected with Apaf-1 or vector control for 24 hr and then incubated with vary concentrations of compound 2 and assayed for viability. (E) Cyto c was titrated into SK-OV-3 cell lysate in the presence of 300 μM dATP, with or without 150 nM purified Apaf-1 and 20 μM compound 2 as indicated.
In order to verify that compound 2 targets the apoptosome as a function of its cytotoxic activity, small interfering RNA (siRNA) was used to silence the expression of Apaf-1 in Jurkat cells. Sense and anti-sense oligonucleotides corresponding to nucleotides 978-998 of Apaf-1 (([…]) as reported by Lassus et al. Science 297, 1352-4. (2002)), were purchased from Dharmacon. Transfection of siRNA into Jurkat cells was accomplished using GeneSilencer (Gene Therapy Systems) according to manufacturer's instructions. There was a significant decrease in the level of expression of Apaf-1 48 hr after transfection of an Apaf-1 specific siRNA, without affecting the expression of caspases in the pathway (FIG. 5A).

Test [14] concerns procaspase-3 processing. The test is described as follows: Procaspase-3 processing in SK-OV-3 cell lysate with purified Apaf-1. It is filed as biochemical. The conditions noted are these: 20 μM compound, 150 nM purified Apaf-1, 300 μM dATP. As to the method: as §3
If silencing Apaf-1 in Jurkat cells make them resistant to compound 2 induced apoptosis, then it would be expected that ectopic expression of wildtype Apaf-1 in an Apaf-1 deficient cell line should render cells sensitive to compound 2. As mentioned above, the ovarian cancer cell line SK-OV-3 is deficient in Apaf-1 activity and is resistant to compound 2. Apaf-i was cloned into pcDNA-3 and transiently transfected into SK-OV-3 cells using Fugene (Roche) according to the manufacturer's instructions. Transient transfection of Apaf-1 into SK-OV-3 cells rendered them sensitive to compound 2 cytotoxicity as compared to the vector control (FIG. 5D). […]

In test [15] the test system is procaspases-9 and -3. The test is described as follows: Immunoblot for cleavage of procaspases-9 and -3 in S-100 cytoplasmic extracts. The test is classed as biochemical. The note with it: 20 μM compound, cyto c 1.25 μM. How it is done: FIG. 2 depicts activity of compounds 1-5 in cell lysates. (A) Compound activation is cyto c dependent. Cyto c was titrated into S-100 cytoplasmic extracts with vehicle alone or 20 μM compound and procaspase-3 processing was assayed by capture ELISA. (B) Compound activation is dose-dependent. Compounds or vehicle were titrated into S-100 cytoplasmic extracts at a cyto c concentration of 1.25 μM and procaspases-3 processing was assayed by capture ELISA. (C) Immunoblot assay of compound-induced caspase activation. Samples at the 20 μM compound concentration in (B) were separated on SDS-polyacrylamide gel and transferred to polyvinyl membrane. The same membrane was cut and probed with antibodies to caspase-9, the large subunit of active caspase-3, and P13 kinase as a loading control. (D) Compounds act upstream of caspase-9 activation. Cyto c was titrated into caspase-3 immunodepleted extracts with or without 20 μM compounds and assayed by immunoblot for procaspase-9 processing.
To directly visualize the processing of procaspases induced by the compounds, samples at the 20 μM compound concentration in FIG. 2B were assayed by immunoblot for the cleavage of procaspases-9 and -3.
On the technique in general: In western blotting, separated proteins are transferred to a membrane and probed.

As usually defined, the pEC50 is the EC50 on a negative log10 scale, so that one unit is a factor of ten. For orientation: pIC50 means the IC50 on a negative log10 scale, so that one unit is a factor of ten. `O=C1C(=O)N(Cc2ccc(Cl)c(Cl)c2)c2ccccc21` [Compound 2]: in [1] (Jurkat, 22 hr, MTT test, read-out: EC50 cell killing), the negative logarithm of the EC50 (pEC50) was roughly 5.30. The negative logarithm of the IC50 (pIC50) in [1] (Jurkhat, leukemia, p53 +) is 5.40; in [2], 4.30; in test [3] (MCF 10A, normal cell), less than 4.30; in test [4] (HMEC, normal cell) it was less than 4.30; in test [5] it was 4.37; in [6], 5.22. Further, the pIC50 was 5.05 in test [7]; 4.70 in test [8]; less than 4.30 in test [9]; 4.36 in [10]; less than 4.30 in test [11] (SK-OV-3, ovarian, Apaf-1 deficient); 4.40 in [12]. For the same molecule, the effect on cells entry in [3] (MCF 10A cells, up to 50 μM) is reported as “no effect except at the highest concentration”; in test [4] (HMEC cells, up to 50 μM), “no effect except at the highest concentration”; in [11] (SK-OV-3, deficient in Apaf-1 activity), “no effect”. The “cell killing after silencing of Apaf-1” value in test [13] is “resistance”. Besides, the “effect on cyto c activation curve of procaspase-3 processing” value in test [14] is “shifted the activation curve to the left”.

`O=C(NCc1ccc(Cl)c(Cl)c1)OC1CCc2ccccc21` (stereo not shown) [Compound 4]: the “processing of procaspases-9 and -3” value in [15] was “limited processing”.

The record behind these values is patent US20030229132A1, “Small molecule modulators of apoptosis” (priority 2002, published 2003).
